Starred links: 1 amine or outer side, 2 acyl side, 3 side chain; linkers in the order of their positions; H or OH if unused. *: point of attachment. Palmitoyl = CCCCCCCCCCCCCCCC(=O)*; Suc = O=C(CCC(=O)[*:2])[*:1]; Pentanoyl = CCCCC(=O)*; Butyryl = CCCC(=O)*
Assays:
[1] = tested on: HIV wild type virus strain IIIB; assay: Standard Anti-Viral-Experiment (AVE), HIV-1 replication assay in MT4-LTR-EGFP cells, wild type IIIB; type: cell-based; details: 3 days, EGFP signal
Procedure, shortened: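 MT4-LTR-EGFP cells infected with HIV-1 IIIB, HXB2D or HXB2D gp41 mutants V38A/Q40H alongside serial 4-fold compound dilutions, 3 days at 37° C. EGFP read by laser-scanning microscopy; EC50 by linear interpolation against log concentration. Mutant results given as fold change in EC50 versus wild-type HXB2D.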

[2] = tested on: HIV-IIIB + 50% HS; assay: Standard AVE (50% Human Serum), HIV-1 replication assay in MT4-LTR-EGFP cells; type: cell-based; details: fold change vs EC50 in the assay without human serum
Procedure, shortened: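 MT4-LTR-EGFP cells infected with HIV-1 alongside 4-fold serial compound dilutions in 50% human serum, 3 days at 37 °C. EGFP read by laser-scanning microscopy; EC50 by linear interpolation against log concentration, reported as fold change versus EC50 without serum.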

[3] = tested on: HIV mutant virus strain HXB2D with mutation Q40H in the gp41 gene; assay: Standard AVE, HXB2D site directed mutant Q40H; type: cell-based, HIV-1; details: fold change vs wild type strain HXB2D
Text: • Standard Anti-Viral-Experiment “AVE” (wild type HIV strain IIIB+HIV strain HXB2D side directed mutants V38A and Q40H)
The HIV-1 replication assay measures virus replication (HIV wild type virus strain 111B or HXB2D, or a HIV mutant virus strain HXB2D with mutation V38A or Q40H in the gp41 gene) as an induction of enhanced green fluorescent protein (EGFP) expression. The indicator MT4-LTR-EGFP cells contain an EGFP gene under the control of the HIV-1 LTR promoter sequence. Successful HIV-1 infection results in viral Tat protein expression and subsequent induction of EGFP expression. Compounds/peptides inhibiting HIV-1 infection are expected to reduce EGFP expression as compared to the untreated HIV-infected control.
Serial 4-fold dilutions of test compounds/peptides were mixed with HIV-1 (IIIB, HXB2D, or a HXB2D mutant virus (V38A or Q40H)) and MT4-LTR-EGFP cells and incubated at 37° C. After 3 days, the wells were examined for EGFP expression using an argon laser-scanning microscope. The effective compound/peptide concentration inhibiting 50% of the virus-induced EGFP signal (EC50) was determined by linear interpolation of the EGFP signal vs. logarithm of the compound concentration; (T20, C34 and Sifuvirtide were added as reference compounds). For the V38A and Q40H mutant viruses, results were reported as a fold change in EC50, as compared with a drug-susceptible wild type strain HXB2D, which forms the backbone of the mutant virus. • Standard AVE (50% Human Serum)

| Substance | EC50 [1] | HIV-IIIB + 50% HS (Fold change in EC50) [2] | HIV-HXB2D Q40H mutant (fold change in EC50) [3] |
| --- | --- | --- | --- |
| Pentanoyl-ANYAALIEALIRKAQEQQEKNEAALR-NH2 (SMILES CCCCC(=O)N[C@@H](C)C(=O)N[C@@H](CC(N)=O)C(=O)N[C@@H](Cc1ccc(O)cc1)C(=O)N[C@@H](C)C(=O)N[C@@H](C)C(=O)N[C@@H](CC(C)C)C(=O)N[C@H](C(=O)N[C@@H](CCC(=O)O)C(=O)N[C@@H](C)C(=O)N[C@@H](CC(C)C)C(=O)N[C@H](C(=O)N[C@@H](CCCNC(=N)N)C(=O)N[C@@H](CCCCN)C(=O)N[C@@H](C)C(=O)N[C@@H](CCC(N)=O)C(=O)N[C@@H](CCC(=O)O)C(=O)N[C@@H](CCC(N)=O)C(=O)N[C@@H](CCC(N)=O)C(=O)N[C@@H](CCC(=O)O)C(=O)N[C@@H](CCCCN)C(=O)N[C@@H](CC(N)=O)C(=O)N[C@@H](CCC(=O)O)C(=O)N[C@@H](C)C(=O)N[C@@H](C)C(=O)N[C@@H](CC(C)C)C(=O)N[C@@H](CCCNC(=N)N)C(N)=O)[C@@H](C)CC)[C@@H](C)CC) [Peptide 16] | 8 nM | 0.8 | >108 |
| ANYLALIEELIRAAQEQQEKNEAALR [Peptide 10] | 4 nM | 0.4 | >695 |
| ANYAALIEALIRAAQEQQEKNEAALR [Peptide 2] | 77 nM | 1 | >28 |
| ENYLALIEALIRAAQEQQEKNEAALL [Peptide 9] | 3 nM | 0.4 | 1196 |
| ENYLALIEALIRAAQEQQEKNEAALR [Peptide 8] | 2 nM | 0.4 | 900 |
| Ac-ACYAACIEALIRAAQEQQEKNEAALR-NH2 [Peptide 66] | 3 nM | 2 | 231 |
| Ac-ECYLRCIEALIRAAQEQQEKNEAALR-NH2 [Peptide 50] | 2 nM | 2 | 33 |
| Pentanoyl-ANYLALIEALIRAAQEQQEKNEAALR-NH2 (SMILES CCCCC(=O)N[C@@H](C)C(=O)N[C@@H](CC(N)=O)C(=O)N[C@@H](Cc1ccc(O)cc1)C(=O)N[C@@H](CC(C)C)C(=O)N[C@@H](C)C(=O)N[C@@H](CC(C)C)C(=O)N[C@H](C(=O)N[C@@H](CCC(=O)O)C(=O)N[C@@H](C)C(=O)N[C@@H](CC(C)C)C(=O)N[C@H](C(=O)N[C@@H](CCCNC(=N)N)C(=O)N[C@@H](C)C(=O)N[C@@H](C)C(=O)N[C@@H](CCC(N)=O)C(=O)N[C@@H](CCC(=O)O)C(=O)N[C@@H](CCC(N)=O)C(=O)N[C@@H](CCC(N)=O)C(=O)N[C@@H](CCC(=O)O)C(=O)N[C@@H](CCCCN)C(=O)N[C@@H](CC(N)=O)C(=O)N[C@@H](CCC(=O)O)C(=O)N[C@@H](C)C(=O)N[C@@H](C)C(=O)N[C@@H](CC(C)C)C(=O)N[C@@H](CCCNC(=N)N)C(N)=O)[C@@H](C)CC)[C@@H](C)CC) [Peptide 15] | 2 nM | 2 | 168 |
| Pentanoyl-ENYLALIEELIRKAQEQQEKNEAALR-NH2 (SMILES CCCCC(=O)N[C@@H](CCC(=O)O)C(=O)N[C@@H](CC(N)=O)C(=O)N[C@@H](Cc1ccc(O)cc1)C(=O)N[C@@H](CC(C)C)C(=O)N[C@@H](C)C(=O)N[C@@H](CC(C)C)C(=O)N[C@H](C(=O)N[C@@H](CCC(=O)O)C(=O)N[C@@H](CCC(=O)O)C(=O)N[C@@H](CC(C)C)C(=O)N[C@H](C(=O)N[C@@H](CCCNC(=N)N)C(=O)N[C@@H](CCCCN)C(=O)N[C@@H](C)C(=O)N[C@@H](CCC(N)=O)C(=O)N[C@@H](CCC(=O)O)C(=O)N[C@@H](CCC(N)=O)C(=O)N[C@@H](CCC(N)=O)C(=O)N[C@@H](CCC(=O)O)C(=O)N[C@@H](CCCCN)C(=O)N[C@@H](CC(N)=O)C(=O)N[C@@H](CCC(=O)O)C(=O)N[C@@H](C)C(=O)N[C@@H](C)C(=O)N[C@@H](CC(C)C)C(=O)N[C@@H](CCCNC(=N)N)C(N)=O)[C@@H](C)CC)[C@@H](C)CC) [Peptide 52] | 1 nM | 2 | 38 |
| Butanoyl-ECYLACIEELIRKAQEQQEKNEAALR-NH2 (Butyryl-ECYLACIEELIRKAQEQQEKNEAALR-NH2; cysteine pairing not given here) [Peptide 40] | 1 nM | 1 | 84 |
| Suc-ACYLACIEALIRAAQEQQEKNEAALR-NH2 (cysteine pairing not given here) [Peptide 43] | 2 nM | 1 | 103 |
| Pentanoyl-ECYLRCIEELIRKAQEQQEKNEAALR-NH2 (cysteine pairing not given here) [Peptide 91] | 1 nM | 5 | 5 |
| Suc-ACYLACIEELIRKAQEQQEKNEAALr-NH2 [Peptide 34] | 2 nM | 0.3 | 265 |
| Suc-ANYLALIEALIRAAQEQQEKNEAALK(palmitoyl)-NH2 (Suc-ANYLALIEALIRAAQEQQEKNEAALK(Palmitoyl)-NH2; SMILES CCCCCCCCCCCCCCCC(=O)NCCCC[C@H](NC(=O)[C@H](CC(C)C)NC(=O)[C@H](C)NC(=O)[C@H](C)NC(=O)[C@H](CCC(=O)O)NC(=O)[C@H](CC(N)=O)NC(=O)[C@H](CCCCN)NC(=O)[C@H](CCC(=O)O)NC(=O)[C@H](CCC(N)=O)NC(=O)[C@H](CCC(N)=O)NC(=O)[C@H](CCC(=O)O)NC(=O)[C@H](CCC(N)=O)NC(=O)[C@H](C)NC(=O)[C@H](C)NC(=O)[C@H](CCCNC(=N)N)NC(=O)[C@@H](NC(=O)[C@H](CC(C)C)NC(=O)[C@H](C)NC(=O)[C@H](CCC(=O)O)NC(=O)[C@@H](NC(=O)[C@H](CC(C)C)NC(=O)[C@H](C)NC(=O)[C@H](CC(C)C)NC(=O)[C@H](Cc1ccc(O)cc1)NC(=O)[C@H](CC(N)=O)NC(=O)[C@H](C)NC(=O)CCC(=O)O)[C@@H](C)CC)[C@@H](C)CC)C(N)=O) [Peptide 13] | 0.4 nM | 9 | 9 |
| Ac-ECYAACIEELIRKAQEQQEKNEAALR-NH2 [Peptide 53] | 21 nM | 0.3 | >164 |
| Pentanoyl-ECYLCLIEELIRKAQEQQEKNEAALR-NH2 (cysteine pairing not given here) [Peptide 92] | 1 nM | 5 | 3 |
| SUC-CYLACIEALIRAAQEQQEKNEAALR-NH2 (Suc-CYLACIEALIRAAQEQQEKNEAALR-NH2; cysteine pairing not given here) [Peptide 26] | 1 nM | 1 | 311 |
| AC-ACYLACIEALIRRAQEQQEKNEAALR-NH2 [Peptide 51] | 3 nM | 1 | 93 |
| Suc-ENYLRLIEELIRKAQEQQEKNEAALR-NH2 (SMILES CC[C@H](C)[C@H](NC(=O)[C@H](CC(C)C)NC(=O)[C@H](CCC(=O)O)NC(=O)[C@H](CCC(=O)O)NC(=O)[C@@H](NC(=O)[C@H](CC(C)C)NC(=O)[C@H](CCCNC(=N)N)NC(=O)[C@H](CC(C)C)NC(=O)[C@H](Cc1ccc(O)cc1)NC(=O)[C@H](CC(N)=O)NC(=O)[C@H](CCC(=O)O)NC(=O)CCC(=O)O)[C@@H](C)CC)C(=O)N[C@@H](CCCNC(=N)N)C(=O)N[C@@H](CCCCN)C(=O)N[C@@H](C)C(=O)N[C@@H](CCC(N)=O)C(=O)N[C@@H](CCC(=O)O)C(=O)N[C@@H](CCC(N)=O)C(=O)N[C@@H](CCC(N)=O)C(=O)N[C@@H](CCC(=O)O)C(=O)N[C@@H](CCCCN)C(=O)N[C@@H](CC(N)=O)C(=O)N[C@@H](CCC(=O)O)C(=O)N[C@@H](C)C(=O)N[C@@H](C)C(=O)N[C@@H](CC(C)C)C(=O)N[C@@H](CCCNC(=N)N)C(N)=O) [Peptide 20] | 0.7 nM | 1 | 80 |
| SUC-ECYLACIEALIRAAQEQQEKNEAALR-NH2 (Suc-ECYLACIEALIRAAQEQQEKNEAALR-NH2; cysteine pairing not given here) [Peptide 33] | 1 nM | 0.6 | 269 |
